Source: ChEMBL document CHEMBL4840340, “Design, synthesis, kinetic, molecular dynamics, and hypoglycemic effect characterization of new and potential selective benzimidazole derivatives as Protein Tyrosine Phosphatase 1B inhibitors” (Bioorg Med Chem, 2021)
pKi: −log10 of the molar value. Active and inactive are the calls of the source. The calls are words filed in the database; no cut-off is given here.

Tests used:
[1] = biological target: T1, Tyrosine-protein phosphatase non-receptor type 1 (Homo sapiens) (UniProt P18031); assay: Inhibition of PTP1B (unknown origin) at 20 uM using pNPP as substrate by spectrophotometric analysis
T1 sequence (whole entry): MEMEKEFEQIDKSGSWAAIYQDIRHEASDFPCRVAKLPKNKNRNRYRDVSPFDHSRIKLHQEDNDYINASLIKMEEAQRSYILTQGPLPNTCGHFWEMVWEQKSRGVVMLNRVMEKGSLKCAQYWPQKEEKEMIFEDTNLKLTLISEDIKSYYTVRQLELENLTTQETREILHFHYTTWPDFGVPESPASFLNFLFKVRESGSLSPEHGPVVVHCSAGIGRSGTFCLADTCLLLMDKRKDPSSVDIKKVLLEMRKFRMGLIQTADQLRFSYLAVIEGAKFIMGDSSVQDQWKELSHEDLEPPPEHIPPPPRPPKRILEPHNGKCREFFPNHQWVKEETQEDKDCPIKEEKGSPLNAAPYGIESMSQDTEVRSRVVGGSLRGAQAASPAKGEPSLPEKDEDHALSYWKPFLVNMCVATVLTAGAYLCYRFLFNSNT

[2] = biological target: T1, Tyrosine-protein phosphatase non-receptor type 1 (Homo sapiens); assay: Mixed type inhibition of PTP1B (unknown origin) using varying levels of pNPP as substrate by Lineweaver-Burk plot analysis
[3] = biological target: T2, Tyrosine-protein phosphatase non-receptor type 1 (Homo sapiens, UniProt P18031); assay: Inhibition of PTP1B (unknown origin) assessed as inhibition constant using pNPP as substrate by spectrophotometric analysis
T2 sequence (P18031 whole entry): T1 sequence (whole entry)

Rattus norvegicus = assay: Hypoglycemic activity in high fat diet-fed induced type 2 diabetic mellitus Wistar rat model assessed as blood glucose level at 60 mg/kg, ip by glucose tolerance test; type: functional
[4] = biological target: T1, Tyrosine-protein phosphatase non-receptor type 1 (Homo sapiens); assay: Inhibition of PTP1B (unknown origin) assessed as inhibition constant for uncompetitive inhibition using pNPP as substrate by spectrophotometric analysis
[5] = biological target: T1, Tyrosine-protein phosphatase non-receptor type 1 (Homo sapiens); assay: Inhibition of PTP1B (unknown origin) at 40 uM using pNPP as substrate by spectrophotometric analysis

| inhibition [1] | inhibition [2] | pKi [3] | alphaKi [4] [µM] | inhibition [5] [%] | SMILES | Activity (Rattus norvegicus) [%] |
| --- | --- | --- | --- | --- | --- | --- |
| inactive |  |  |  |  | O=C(CSc1nc2cc(Oc3cccc4ccccc34)ccc2[nH]1)Nc1nccs1 |  |
| inactive |  |  |  |  | CCOC(=O)c1ccc(NC(=O)CSc2nc3cc(Oc4cccc5ccccc45)ccc3[nH]2)cc1 |  |
|  | Active | 4.52 | 124 | 40 | O=C(CSc1nc2cc(Oc3cccc4ccccc34)ccc2[nH]1)Nc1ccc(C(=O)O)cc1 | 19 |
| inactive |  |  |  |  | O=C(CSc1nc2cc(Oc3ccc4ccccc4c3)c(Cl)cc2[nH]1)Nc1nccs1 |  |
| inactive |  |  |  |  | Cc1cc(NC(=O)CSc2nc3cc(Oc4ccc5ccccc5c4)ccc3[nH]2)on1 |  |
|  |  |  |  | 0 | CCOc1cc2nc(SCC(=O)Nc3ccc(C(=O)O)cc3)[nH]c2cc1Cl |  |
|  | Active | 4.63 | 60.6 | 45 | O=C(CSc1nc2cc(Oc3cccc4ccccc34)ccc2[nH]1)Nc1ccccc1C(=O)O | 15 |
| inactive |  |  |  |  | O=C(CSc1nc2cc(Oc3ccc4ccccc4c3)ccc2[nH]1)Nc1nccs1 |  |
| inactive |  |  |  |  | CCOC(=O)c1csc(NC(=O)CSc2nc3cc(Oc4ccc5ccccc5c4)ccc3[nH]2)n1 |  |
|  | Active | 4.45 | 113 | 30 | O=C(CSc1nc2cc(Oc3ccc4ccccc4c3)ccc2[nH]1)Nc1ccc(C(=O)O)cc1 | 23 |
|  | Active | 4.90 | 37.8 | 75 | O=C(CSc1nc2cc(Oc3ccc4ccccc4c3)c(Cl)cc2[nH]1)Nc1ccc(C(=O)O)cc1 | 28 |
| inactive |  |  |  |  | CCOC(=O)c1ccc(NC(=O)CSc2nc3cc(Oc4ccc5ccccc5c4)ccc3[nH]2)cc1 |  |
